Among the data in patent US20060024337A1, “Process for dissolving lipophilic compounds in aqueous solution with amphiphilic block copolymers, and cosmetic composition” (priority 2002, published 2006) are solubility values, retold here.

Data set [1] in a line: Dissolving Parsol 1789 in water with amphiphilic block copolymers (film hydration, centrifugation, HPLC assay of supernatant). In kind it is physicochemical. The following applies: 25 °C, thermodynamic from solid, no polymer ("natural" solubility).
Procedure: (§1) The measurement is performed by UV spectrometry or HPLC on an aqueous solution, prepared beforehand, of from 20 to 80° C. for 2 hours, followed by cooling to 25° C. The assay is performed 24 hours after this preparation on the supernatant obtained after centrifuging the suspension to remove all crystals, or on the pellet in the case of solubilization of oily molecules, the centrifugation resulting in creaming of the portion that is not encapsulated in the micelles.
The supernatant, which should not contain any crystals that may be identified using an optical microscope in polarized light, is taken up and then assayed by HPLC.
(§2) The solubility gain is calculated relative to the “natural” solubility of the lipophilic compound in water.
Data set [2] can be described thus: Dissolving DHEA in water with amphiphilic block copolymers (film hydration, centrifugation, HPLC assay of supernatant). Type of data set: physicochemical. The following applies: 25 °C, thermodynamic from solid, no polymer ("natural" solubility).
Procedure: as §1, §2

Each structure is given as a SMILES string. Values after ≈ are worked out from the molar mass of the structure shown.

In the case of `COc1ccc(C(=O)CC(=O)c2ccc(C(C)(C)C)cc2)cc1` [Parsol 1789, 4-(tert-butyl)-4′-methoxydibenzoylmethane], the concentration in solution in data set [1] (solubility at 24 h) came to 1 µg/mL (≈ 3.22 µM).
As to `C[C@]12CC[C@H](O)CC1=CC[C@@H]1[C@@H]2CC[C@]2(C)C(=O)CC[C@@H]12` [DHEA, dehydroepiandrosterone], the solubility (usually the concentration that dissolves in the medium under given conditions) at 24 h in data set [2] turned out to be 1 µg/mL (≈ 3.47 µM).
